Where a name gives a salt, the structure may show the parent alone.
Biological target: T1, GSK3β (Homo sapiens, UniProt P49841)
T1 construct: purchased Upstate xy
Test: GSK3β biochemical in vitro assay (fluorescence, NADH-coupled)
Settings: 5 nM GSK3β, 40 μM substrate GSM, 50 μM ATP, 30° C., 2 hours
Method: The inhibitory activity of active substances is determined in a biochemical assay. The ingredients required for this purpose are mixed in a black 384-well microtitre plate with transparent base (from Greiner, catalogue number 781092). The requirements in this connection for each well of the 384-well microtitre plate are 5 nM GSK3β (from Upstate, catalogue number xy), 40 μM GSK3B substrate GSM (sequence H-RRRPASVPPSPSLSRHS-(pS)-HQRR, from Upstate, catalogue number 2-533), 30 μM nicotinamide adenine dinucleotide NADH (Roche Diagnostics, catalogue number 10107735), 50 μM adenosine triphosphate ATP (from Sigma, catalogue number A7966), and 2 mM phosphoenolpyruvate (from Roche, catalogue number 128112). The required reaction buffer in which the biochemical reaction takes place consists of 50 mM Trizma hydrochloride tris-HCl pH: 7.5 (from Sigma, catalogue number T3253), 5 mM magnesium chloride MgCl2 (from Sigma, catalogue number M8266), 0.2 mM DL-dithiothreitol DTT (from Sigma, catalogue number D9779), 2 mM ethylenediaminethertetraacid EDTA (from Sigma, catalogue number E6758), 0.01% Triton X-100 (from Sigma, catalogue number T8787) and 0.05% bovine serum albumin BSA (from Sigma, catalogue number B4287).
Active substances are dissolved in dimethyl sulphoxide DMSO (from Sigma, catalogue number D8418) in a concentration of 10 mM. Active substances are added in serial concentrations of 10 μM, 1 μM, 0.1 μM, 0.01 μM, 0.001 μM, 0.0001 μM, 0.00001 μM, 0.000001 μM to the mixtures of the biochemical reaction. As control, dimethyl sulphoxide is added instead of substance in a final concentration of 0.1%.
The reaction is incubated at 30° C. for 2 hours and then the resulting fluorescence is measured in a Tecan Safire-XFLUOR4 instrument, version V4.50 (serial number 12901300283) with the specifications: measurement mode—fluorescence measured from below, extinction wavelength 340 nm, emission wavelength 465 nm, slit width extinction 5 nm, slit width emission 5 nm, gain mode 120, delay 0 μs, number of light flashes per measurement 3, and an integration time of 40 μs.
The activity of the active substances is calculated in relation to these 0% and 100%.

T1 sequence (P49841 whole entry, species assumed): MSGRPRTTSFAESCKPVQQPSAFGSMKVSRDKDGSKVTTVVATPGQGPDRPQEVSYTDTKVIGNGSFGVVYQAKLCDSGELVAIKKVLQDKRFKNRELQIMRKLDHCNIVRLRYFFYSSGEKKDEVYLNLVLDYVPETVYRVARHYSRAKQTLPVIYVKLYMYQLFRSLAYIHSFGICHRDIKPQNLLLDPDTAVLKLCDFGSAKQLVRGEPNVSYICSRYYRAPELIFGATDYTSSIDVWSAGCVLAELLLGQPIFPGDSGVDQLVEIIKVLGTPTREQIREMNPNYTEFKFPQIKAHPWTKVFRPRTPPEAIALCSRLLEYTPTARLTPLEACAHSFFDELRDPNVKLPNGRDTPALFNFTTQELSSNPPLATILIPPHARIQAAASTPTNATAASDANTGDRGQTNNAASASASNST

SMILES	IC50 [nM]
Nc1nc(NCCNc2nc(-c3ccc(Cl)cc3Cl)cc3nccn23)ccc1[N+](=O)[O-] [Example 4, N^6-(2-{[7-(2,4-Dichlorophenyl)imidazo[1,2-c]pyrimidin-5-yl]amino}ethyl)-3-nitropyridine-2,6-diamine]	5
N#Cc1ccc(NCCNc2nc(-c3ccc(C(F)(F)F)cc3)cc3nccn23)nc1 [Example 7, 6-{[2-({7-[4-(Trifluoromethyl)phenyl]imidazo[1,2-c]pyrimidin-5-yl}amino)ethyl]amino}-nicotinonitrile]	183
Nc1nc(NCCNc2nc(-c3ccccc3)cc3nccn23)ccc1[N+](=O)[O-] [Example 57]	93
Cc1cn2c(NCCNc3ccc([N+](=O)[O-])c(N)n3)nc(-c3ccc(Cl)cc3Cl)cc2n1 [Example 77, N^6-(2-{[7-(2,4-Dichlorophenyl)-2-methylimidazo[1,2-c]pyrimidin-5-yl]amino}ethyl)-3-nitropyridine-2,6-diamine]	17
Nc1nc(NCCNc2nc(-c3ccc(Cl)cc3Cl)cc3nc(CN4CCOCC4)cn23)ccc1[N+](=O)[O-] [Example 81, N^6-(2-{[7-(2,4-Dichlorophenyl)-2-(morpholin-4-ylmethyl)imidazo[1,2-c]pyrimidin-5-yl]amino}ethyl)-3-nitropyridine-2,6-diamine trifluoroacetate]	8
N#Cc1ccc(NCCNc2nc(-c3ccc(C(F)(F)F)cc3)cc3ncnn23)nc1 [Example 93, 6-{[2-({7-[4-(Trifluoromethyl)phenyl][1,2,4]triazolo[1,5-c]pyrimidin-5-yl}amino)ethyl]amino}-nicotinonitrile]	72
CN1CCN(C(=O)c2cn3c(NCCNc4ccc(C#N)cn4)nc(-c4ccc(Cl)cc4Cl)cc3n2)CC1 [Example 111]	89
CN(C)CCNC(=O)c1cn2c(NCCNc3ccc(C#N)cn3)nc(-c3ccc(Cl)cc3Cl)cc2n1 [Example 112]	54
CN1CCN(CCNC(=O)c2cn3c(NCCNc4ccc(C#N)cn4)nc(-c4ccc(Cl)cc4Cl)cc3n2)CC1 [Example 113]	41
N#Cc1ccc(NCCNc2nc(-c3ccc(Cl)cc3Cl)cc3nc(C(=O)NCC(=O)O)cn23)nc1 [Example 115]	5
N#Cc1ccc(NCCNc2nc(-c3ccc(C(F)(F)F)cc3)cc3nc(C(=O)NC(CO)CO)cn23)nc1 [Example 120]	124
CC(=O)c1sc(NC2CCCN(c3nc(-c4ccc(Cl)cc4Cl)cc4nccn34)C2)nc1N (stereo not shown) [Example 128, 1-[4-amino-2-({1-[7-(2,4-dichlorophenyl)imidazo[1,2-c]pyrimidin-5-yl]piperidin-3-yl}amino)-1,3-thiazol-5-yl]ethanone trifluoroacetate]	3
Nc1nc(NCCNc2nc(-c3ccc(Cl)cc3Cl)cc3nccn23)sc1C(=O)C(F)(F)F [Example 129]	7
Nc1nc(NCCNc2nc(-c3ccc(Cl)cc3Cl)cc3nccn23)sc1C(=O)C1CC1 [Example 131]	6
N#Cc1ccc(NCCNc2nc(-c3ccc(Cl)cc3Cl)cc3nc(CN4CCOCC4)cn23)nc1 [Example 145, 6-[(2-{[7-(2,4-Dichlorophenyl)-2-(morpholin-4-ylmethyl)imidazo[1,2-c]pyrimidin-5-yl]amino}-ethyl)amino]pyridine-3-carbonitrile trifluoroacetate]	62
CN(C)Cc1cn2c(NCCNc3ccc([N+](=O)[O-])c(N)n3)nc(-c3ccc(Cl)cc3Cl)cc2n1 [Example 147, N^6-[2-({7-(2,4-Dichlorophenyl)-2-[(dimethylamino)methyl]imidazo[1,2-c]pyrimidin-5-yl}amino)-ethyl]-3-nitropyridine-2,6-diamine trifluoroacetate]	24
Nc1nc(NCCNc2nc(-c3ccc(Cl)cc3Cl)cc3nccn23)ccc1C(=O)C(F)(F)F [Example 149, 1-{2-Amino-6-[(2-{[7-(2,4-dichlorophenyl)imidazo[1,2-c]pyrimidin-5-yl]amino}ethyl)amino]-pyridin-3-yl}-2,2,2-trifluoroethanone hydrochloride]	10
CC(=O)c1ccc(NCCNc2nc(-c3ccc(Cl)cc3Cl)cc3nccn23)nc1N [Example 150, 1-{2-Amino-6-[(2-{[7-(2,4-dichlorophenyl)imidazo[1,2-c]pyrimidin-5-yl]amino}ethyl)amino]-pyridin-3-yl}ethanone hydrochloride]	11
N#Cc1ccc(NCCNc2nc(-c3ccc(C(F)(F)F)cc3)cc3nc(CN4CCOCC4)nn23)nc1N [Example 180]	50
N#Cc1sc(NCCNc2nc(-c3ccc(Cl)cc3Cl)cc3nc(CN4CCOCC4)nn23)nc1N [Example 185]	39
N#Cc1sc(NCCNc2nc(-c3ccc(C(F)(F)F)cc3)cc3ncnn23)nc1N [Example 186]	27

The remaining lines, values ahead:

IC50 [nM]	SMILES
22	N#Cc1ccc(NC2CCCN(c3nc(-c4ccc(Cl)cc4Cl)cc4nccn34)C2)nc1 (single isomer, unassigned) [Ent. B 123, 6-({1-[7-(2,4-dichlorophenyl)imidazo[1,2-c]pyrimidin-5-yl]piperidin-3-yl}amino)pyridine-3-carbonitrile trifluoroacetate]
34	N#Cc1ccc(NCCNc2nc(-c3ccc(Cl)cc3Cl)cc3nccn23)nc1 [Example 1, 6-[(2-{[7-(2,4-Dichlorophenyl)imidazo[1,2-c]pyrimidin-5-yl]amino}ethyl)amino]nicotinonitrile]
15	N#Cc1sc(NCCNc2nc(-c3ccc(Cl)cc3Cl)cc3nccn23)nc1N [Example 5, 4-Amino-2-[(2-{[7-(2,4-dichlorophenyl)imidazo[1,2-c]pyrimidin-5-yl]amino}ethyl)amino]-1,3-thiazole-5-carbonitrile]
44	O=[N+]([O-])c1ccc(NCCNc2nc(-c3ccc(Cl)cc3Cl)cc3nccn23)nc1 [Example 6, N-[7-(2,4-Dichlorophenyl)imidazo[1,2-c]pyrimidin-5-yl]-N′-(5-nitropyridin-2-yl)ethane-1,2-diamine]
178	CC(C)(C)c1ccc(-c2cc3nccn3c(NCCNc3ccc(C#N)cn3)n2)cc1 [Example 8]
148	Nc1nc(NCCNc2nc(-c3ccc(OC(F)(F)F)cc3)cc3nccn23)ccc1[N+](=O)[O-] [Example 32]
15	Cc1cc(C)cc(-c2cc3nccn3c(NCCNc3ccc([N+](=O)[O-])c(N)n3)n2)c1 [Example 36]
23	Cc1cccc(-c2cc3nccn3c(NCCNc3ccc([N+](=O)[O-])c(N)n3)n2)c1C [Example 38]
23	Cc1cc(F)ccc1-c1cc2nccn2c(NCCNc2ccc([N+](=O)[O-])c(N)n2)n1 [Example 39]
24	Cc1cccc(-c2cc3nccn3c(NCCNc3ccc([N+](=O)[O-])c(N)n3)n2)c1 [Example 40]
81	Nc1nc(NCCNc2nc(-c3ccc(F)c(Cl)c3)cc3nccn23)ccc1[N+](=O)[O-] [Example 53]
91	CCOc1ccc(-c2cc3nccn3c(NCCNc3ccc([N+](=O)[O-])c(N)n3)n2)cc1 [Example 56]
173	CC(C)Cn1cc(-c2cc3nccn3c(NCCNc3ccc([N+](=O)[O-])c(N)n3)n2)cn1 [Example 63]
188	CCCCc1ccc(-c2cc3nccn3c(NCCNc3ccc([N+](=O)[O-])c(N)n3)n2)cc1 [Example 65]
196	Nc1nc(NCCNc2nc(-c3ccc(C(F)(F)F)cc3)cc3nccn23)ccc1[N+](=O)[O-] [Example 66]
94	N#Cc1ccc(NCCNc2nc(-c3ccc(C(F)(F)F)cc3)cc3nc(C(=O)NCCO)cn23)nc1 [Example 117]
22	COC(=O)c1sc(NCCNc2nc(-c3ccc(Cl)cc3Cl)cc3nccn23)nc1N [Example 134]
5	CC(=O)c1sc(NCCNc2nc(-c3ccc(Cl)cc3Cl)cc3nccn23)nc1N [Example 137]
12	N#Cc1ccc(NCCNc2nc(-c3ccc(Cl)cc3Cl)cc3nccn23)nc1N [Example 148, 2-Amino-6-[(2-{[7-(2,4-dichlorophenyl)imidazo[1,2-c]pyrimidin-5-yl]amino}ethyl)amino]-pyridine-3-carbonitrile]
14	N#Cc1ccc(NCCNc2nc(-c3ccc(Cl)cc3Cl)cc3ncc(Br)n23)nc1 [Example 153, 6-[(2-{[3-Bromo-7-(2,4-dichlorophenyl)imidazo[1,2-c]pyrimidin-5-yl]amino}ethyl)amino]-pyridine-3-carbonitrile]
19	N#Cc1ccc(NCCNc2nc(-c3ccc(Cl)cc3Cl)cc3ncc(Cl)n23)nc1 [Example 154, 6-[(2-{[3-Chloro-7-(2,4-dichlorophenyl)imidazo[1,2-c]pyrimidin-5-yl]amino}ethyl)amino]-pyridine-3-carbonitrile]
61	COC(=O)c1ccc(NCCNc2nc(-c3ccc(Cl)cc3Cl)cc3ncnn23)nc1N [Example 167]

Source: patent US8273752B2, “Substituted imidazopyrimidines and triazolopyrimidines” (Bayer Intellectual Property GmbH, priority 2007, dated 2012)
